Each structure is given as a SMILES string. Bounds are passed on as bounds.

The test system of the experiment is mPTP. Briefly: mPTP activity (Ca2+ retention) assay in isolated rat liver mitochondria. The settings on record: examples tested by different contract research organisations, believed comparable. Format: biochemical. The source says:
Pharmacological inhibition or modulation of the mPTP can be measured in well characterised ‘Ca^2+ retention’ assays performed in isolated mitochondria. In vitro, isolated mitochondria rapidly sequester exogenous Ca^2+ until the intramitochondrial Ca^2+ concentration reaches the threshold for mPTP activation. Once the pore is activated, mitochondrial integrity is compromised and the stored Ca^2+ is released. The distribution of Ca^2+ between extra- and intra-mitochondrial compartments can be measured in real time with the use of membrane-impermeant Ca^2+ sensitive fluorescent dyes. Depending on the configuration of the assay, inhibition or modulation of the mPTP either delays the opening of the pore or increases the concentration of Ca^2+ required to induce mPTP opening.
MPTP activity was measured in mitochondria freshly isolated from female Sprague Dawley (250 to 300 gram) rat livers using the following method. Cervical dislocation was performed on the rat. The liver was then perfused in-situ with −40 ml cold Dulbecco's Phosphate Buffered Saline (DPBS) prior to dissection and transferred into 30 ml Isolation Buffer (250 mM Sucrose, 10 mM KCl, 1 mM EGTA, 1 mM EDTA, 25 mM HEPES, adjusted to pH 7.5 with 1M NaOH). Each lobe of the liver was then removed from the buffer, minced using tweezers and a scalpel into −5 mm pieces then transferred into a 50 ml Potterton dounce homogenization tube on ice containing 30 ml ice-cold centrifugation buffer (300 mM Trehalose, 25 mM HEPES, 1 mM EGTA, 1 mM EDTA, 10 mM KCl, adjusted to pH 7.5 with 1M NaOH and supplemented with 0.1% bovine serum albumin (BSA) and complete protease inhibitor cocktail (one tablet of inhibitor per 50 mls of buffer). Homogenisation was carried out using a teflon pestle at 1800 rpm. The slurry was centrifuged at 800 g for 10 min at 4° C., then the supernatant centrifuged at 10,000 g for 10 min. The pellet was washed once with FLIPR assay buffer (75 mM Mannitol, 25 mM Sucrose, 5 mM Potassium Phosphate Monobasic, 20 mM Tris base, 100 mM KCl, 0.1% BSA adjusted to pH 7.4 with 5M HCl) centrifuged again, then resuspended in FLIPR assay buffer to a concentration of 8.8 mg/ml protein.
Tested compounds (10 mM stock in DMSO) were serially diluted in DMSO in half log steps to generate 10 test concentrations (final concentrations in assay 30 μM to 1 nM). An intermediate dilution of 5 μl DMSO samples into 247 μl FLIPR assay buffer was carried out prior to transfer of 5 μl into duplicate wells of a 384 well polypropylene assay plate. Control wells were 0.5% (v/v) DMSO and 5 μM cyclosporin A.
A stock mitochondria/Fluo5N assay solution was prepared in 5.6 ml FLIPR assay buffer (at RT) supplemented with succinate disodium salt (10 mM), rotenone (1 μM), Fluo5N pentapotassium salt (2 μM) and 1 ml mitochondria suspension, then transferred (15 μl) into the assay plate containing test compounds and incubated for 10 min at RT. Assay plates were processed for fluorescence detection on either a FLIPR Tetra (Molecular Devices) or CLARIOstar (BMG) plate reader. For kinetic fluorescence detection on the FLIPR, dye fluorescence was measured every 3 sec for a total of 10 min. After 12 sec, a 2.5 μl bolus of CaCl2 (75 μM) was added from a source plate containing 675 μM CaCl2 in FLIPR assay buffer. Alternatively, the 2.5 μl addition of CaCl2 was performed using a Viaflow 384, plates were incubated at RT for 10 min, and dye fluorescence measured after 10 min on the CLARIOstar plate reader. pIC50 values for tested compounds were calculated using the fluorescence value collected at the 10 min timepoint on either plate reader, with % inhibition calculated using the DMSO control and cyclosporin A values as 0 and 100% respectively.
For `CSc1ccc(CC2(CNC(=O)c3nn(C)c(=O)[nH]3)CCC2)cc1` [Example 106, 1-methyl-N-((1-(4-(methylthio)benzyl)cyclobutyl)methyl)-5-oxo-4,5-dihydro-1H-1,2,4-triazole-3-carboxamide], the “mPTP Rat liver pIC50” value was less than 4.57.

With `Cn1nc(C(=O)NCC(Cc2ccc(F)cc2F)C2CCCC2)[nH]c1=O` (stereo not shown) [Example 103, N-(2-cyclopentyl-3-(2,4-difluorophenyl)propyl)-1-methyl-5-oxo-4,5-dihydro-1H-1,2,4-triazole-3-carboxamide], the “mPTP Rat liver pIC50” value is on record as less than 4.57.

On to `O=C(NCC1(Cc2ccc(F)cc2F)CC12CC2)c1nccc(=O)[nH]1` (stereo not shown) [Example 186], for which the “mPTP Rat liver pIC50” value amounted to 6.58.

Take `Cn1nc(C(=O)NCC2(Cc3ccc(Cl)cc3F)CCC2)[nH]c1=O` [Example 90, N-((1-(4-Chloro-2-fluorobenzyl)cyclobutyl)methyl)-1-methyl-5-oxo-4,5-dihydro-1H-1,2,4-triazole-3-carboxamide]: the “mPTP Rat liver pIC50” value is listed as 5.61.

Consider `CC(C)[C@@H](CNC(=O)c1nn(C)c(=O)[nH]1)Cc1ccccc1` (single isomer, unassigned) [Example 46A], for which the “mPTP Rat liver pIC50” value is on record as 4.71.

For `CCC(F)(CNC(=O)c1nn(C)c(=O)[nH]1)Cc1ccc(F)cc1F` (stereo not shown) [Example 129, N-(2-(2,4-difluorobenzyl)-2-fluorobutyl)-1-methyl-5-oxo-4,5-dihydro-1H-1,2,4-triazole-3-carboxamide], the “mPTP Rat liver pIC50” value was found to be 6.45.

`COc1ccccc1CC1(CNC(=O)c2nn(C)c(=O)[nH]2)CCC1` [Example 61, N-((1-(2-methoxybenzyl)cyclobutyl)methyl)-1-methyl-5-oxo-4,5-dihydro-1H-1,2,4-triazole-3-carboxamide]: the “mPTP Rat liver pIC50” value was 4.99.

On to `O=C(NCC1(Cc2ccccc2)CCC1)c1nc2ccccc2c(=O)[nH]1` [Example 66, N-((1-benzylcyclobutyl)methyl)-4-oxo-3,4-dihydro-quinazoline-2-carboxamide], for which the “mPTP Rat liver pIC50” value is less than 4.52.

With `Cn1nc(C(=O)NCC2(Cc3ccc(F)cc3F)CCCCC2)[nH]c1=O` [Example 73, N-((1-(2,4-Difluorobenzyl)cyclohexyl)methyl)-1-methyl-5-oxo-4,5-dihydro-1H-1,2,4-triazole-3-carboxamide], the “mPTP Rat liver pIC50” value is 5.84.

In the case of `O=C(NCC1(Cc2ccc(F)cc2F)CCC1)c1cc(=O)[nH]s1` [Example 201], the “mPTP Rat liver pIC50” value is given as less than 4.57.

Take `O=C(NCC1(Cc2ccc(F)cc2F)CCC1)c1cc(O)ccn1` [Example 128]: the “mPTP Rat liver pIC50” value is recorded as 6.01.

As to `CCc1ccccc1CC1(CNC(=O)c2nn(C)c(=O)[nH]2)CCC1` [Example 82, N-((1-(2-Ethylbenzyl)cyclobutyl)methyl)-1-methyl-5-oxo-4,5-dihydro-1H-1,2,4-triazole-3-carboxamide], the “mPTP Rat liver pIC50” value came out at 5.27.

Regarding `CCC(CNC(=O)c1nn(C)c(=O)[nH]1)Cc1ccc(F)c(F)c1` (stereo not shown) [Example 164], the “mPTP Rat liver pIC50” value is on record as 6.56.

Regarding `CN(CC(C)(C)Cc1ccccc1)C(=O)c1nn(C)c(=O)[nH]1` [Example 72, N-(2,2-dimethyl-3-phenylpropyl)-N,1-dimethyl-5-oxo-4,5-dihydro-1H-1,2,4-triazole-3-carboxamide], the “mPTP Rat liver pIC50” value was 4.67.

As to `Cc1cccc(CC2(CNC(=O)c3nn(C)c(=O)[nH]3)CCC2)c1F` [Example 94, N-((1-(2-Fluoro-3-methylbenzyl)cyclobutyl)methyl)-1-methyl-5-oxo-4,5-dihydro-1H-1,2,4-triazole-3-carboxamide], the “mPTP Rat liver pIC50” value stood at 5.77.

With `O=C(NC[C@H](Cc1ccc(F)c(F)c1)C1CC1)c1cncc(=O)[nH]1` [Example 151], the “mPTP Rat liver pIC50” value came out at 5.88.

For the molecule `CC[C@@H](Cc1ccccc1)[C@H](C)NC(=O)c1nn(C)c(=O)[nH]1` [Example 74, N-((2S,3S)-3-benzylpentan-2-yl)-1-methyl-5-oxo-4,5-dihydro-1H-1,2,4-triazole-3-carboxamide], the “mPTP Rat liver pIC50” value stood at 5.98.

As to `Cn1nc(C(=O)NCC(C)(Cc2ccc(F)cc2F)C2CC2)[nH]c1=O` (stereo not shown) [Example 210, N-(2-cyclopropyl-3-(2,4-difluorophenyl)-2-methylpropyl)-1-methyl-5-oxo-4,5-dihydro-1H-1,2,4-triazole-3-carboxamide], the “mPTP Rat liver pIC50” value worked out at 6.82.

Turning to `COc1cccc(CC2(CNC(=O)c3nn(C)c(=O)[nH]3)CCC2)c1` [Example 75, N-((1-(3-Methoxybenzyl)cyclobutyl)methyl)-1-methyl-5-oxo-4,5-dihydro-1H-1,2,4-triazole-3-carboxamide], the “mPTP Rat liver pIC50” value stood at 5.77.

For `O=C(NCC1(Cc2ccc(F)cc2F)CC(F)C1)c1nccc(=O)[nH]1` (stereo not shown) [Example 215], the “mPTP Rat liver pIC50” value came to 6.34.

Regarding `Cn1c(=O)[nH]cc(C(=O)NCC(C)(C)Cc2ccccc2)c1=O` [Example 68, N-(2,2-dimethyl-3-phenylpropyl)-3-methyl-2,4-dioxo-1,2,3,4-tetrahydro-pyrimidine-5-carboxamide], the “mPTP Rat liver pIC50” value was less than 4.52.

As for `Cn1nc(C(=O)NCC2(Cc3ccc(F)cc3F)CCC2)n(C)c1=O` [Example 107, N-((1-(2,4-difluorobenzyl)cyclobutyl)methyl)-1,4-dimethyl-5-oxo-4,5-dihydro-1H-1,2,4-triazole-3-carboxamide], the “mPTP Rat liver pIC50” value is recorded as less than 4.57.

In the case of `O=C(NCC1(Cc2ccc(F)cc2F)CCOCC1)c1cc(=O)[nH]o1` [Example 184], the “mPTP Rat liver pIC50” value was determined as 6.14.

`Cn1oc(C(=O)NCC2(Cc3ccc(F)cc3F)CCC2)cc1=O` [Example 126]: the “mPTP Rat liver pIC50” value is given as less than 4.57.

`Cn1nc(C(=O)NCC2(Cc3cccc(C(F)(F)F)c3)CCC2)[nH]c1=O` [Example 110, 1-methyl-5-oxo-N-((1-(3-(trifluoromethyl)benzyl)cyclobutyl)methyl)-4,5-dihydro-1H-1,2,4-triazole-3-carboxamide]: the “mPTP Rat liver pIC50” value is less than 4.57.

On to `O=C(NC[C@H](Cc1cc(F)ccc1F)C1CC1)c1ccc(=O)[nH]n1` [Example 155], for which the “mPTP Rat liver pIC50” value is 5.33.

For `Cn1nc(C(=O)NCC2(Cc3ccccc3C(F)F)CCC2)[nH]c1=O` [Example 76, N-((1-(2-(Difluoromethyl)benzyl)cyclobutyl)methyl)-1-methyl-5-oxo-4,5-dihydro-1H-1,2,4-triazole-3-carboxamide], the “mPTP Rat liver pIC50” value stood at 5.65.

As to `O=C(NCC1(Cc2ccc(F)cc2F)CCC1)c1cnc[nH]c1=O` [Example 213, N-((1-(2,4-difluorobenzyl)cyclobutyl)methyl)-6-oxo-1,6-dihydropyrimidine-5-carboxamide], the “mPTP Rat liver pIC50” value is less than 4.57.

Consider `O=C(NCC1(Cc2ccccc2)CCC1)c1noc(=O)[nH]1` [Example 88, N-((1-Benzylcyclobutyl)methyl)-5-oxo-4,5-dihydro-1,2,4-oxadiazole-3-carboxamide], for which the “mPTP Rat liver pIC50” value was determined as 5.28.

Turning to `O=C(NCC1(Cc2ccc(F)cc2F)CCC1)c1cnc(=O)[nH]c1` [Example 145], the “mPTP Rat liver pIC50” value is less than 4.57.

With `O=C(NCC1(Cc2ccc(F)cc2F)CCC1)c1n[nH]c(=O)o1` [Example 211], the “mPTP Rat liver pIC50” value came out at 6.05.

With `Cn1cc(C(=O)NCC2(Cc3ccccc3)CCC2)[nH]c1=O` [Example 63, N-((1-benzylcyclobutyl)methyl)-1-methyl-2-oxo-2,3-dihydro-1H-imidazole-4-carboxamide], the “mPTP Rat liver pIC50” value is 4.65.

Regarding `Cn1nc(C(=O)NCC2(Cc3cccc(C4CC4)c3)CCC2)[nH]c1=O` [Example 77, N-((1-(3-Cyclopropylbenzyl)cyclobutyl)methyl)-1-methyl-5-oxo-4,5-dihydro-1H-1,2,4-triazole-3-carboxamide], the “mPTP Rat liver pIC50” value worked out at 4.78.

As to `CCC(CNC(=O)c1nn(C)c(=O)[nH]1)Cc1ccc2cnccc2c1` (stereo not shown) [Example 144], the “mPTP Rat liver pIC50” value was less than 4.57.

Values taken from patent publication US12491185B2, “Inhibitors of mPTP” (NRG Therapeutics Ltd, priority 2023, dated 2025).
